Consider 23 molecules from PMC3351444, “Molecular Evolution of a Peptide GPCR Ligand Driven by Artificial Neural Networks” (PLoS ONE, 2012).

One series deals with T1, human CMKLR1 (Homo sapiens, UniProt Q99788).
T1 construct: host or cells: HEK293A (Invitrogen), stably expressing human Gα15
T1 sequence (Q99788 1-373): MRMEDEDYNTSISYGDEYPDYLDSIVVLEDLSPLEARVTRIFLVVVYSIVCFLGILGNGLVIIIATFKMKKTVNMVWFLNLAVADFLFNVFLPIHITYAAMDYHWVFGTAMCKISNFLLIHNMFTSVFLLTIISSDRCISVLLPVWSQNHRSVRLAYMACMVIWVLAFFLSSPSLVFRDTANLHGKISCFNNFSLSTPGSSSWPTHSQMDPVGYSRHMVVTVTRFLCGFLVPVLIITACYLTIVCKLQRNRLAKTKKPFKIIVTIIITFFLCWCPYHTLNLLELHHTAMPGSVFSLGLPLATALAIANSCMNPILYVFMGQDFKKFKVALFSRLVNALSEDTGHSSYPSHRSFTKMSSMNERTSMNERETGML
The experiment in a line: Ca2+ mobilization (CellLux imaging) agonist assay in HEK293A cells expressing CMKLR1 and Gα15. Type of series: cell-based. The settings on record: for EC50: NR where no EC50 is given, read-out: EC50. As to the method: HEK293A cells (Invitrogen) expressing CMKLR1 and Gα15 were seeded at 5*10^4 cells/well in a poly-D-lysine coated 96-well black well/clear bottom plate (BD Falcon) and cultured overnight. From eighteen to twenty-four hours later, cells were loaded with FLUO4-AM (Invitrogen). Then the cells were washed two times with C1 solution (130 mM NaCl, 5 mM KCl, 10 mM HEPES pH 7.4, 2 mM CaCl2, and 10 mM Glucose). After the final wash, a 100 µL of residual volume remained on the cells. Peptides were dissolved in 10% DMSO to a concentration of 1 mM and were diluted in C1 solution with 0.1 % BSA. They were aliquoted as 2x solutions in 96-well plates and were simultaneously transferred by the robotic system within the imager from the ligand plate to the cell plate. […] Fluorescence data was generated in duplicate and experiments were repeated for at least three times. […] For the calculation of concentration-response curves, signals of two wells receiving the same concentration of test substances were averaged and the fluorescence changes of corresponding buffer C1 wells were subtracted. Signals were normalized to background fluorescence. For the calculation of EC50 values, plots of amplitude versus concentrations were prepared in SigmaPlot 11.
On the technique in general: Calcium flux is commonly read through the fluorescence of an indicator in the cells.

Series [1] in a line: In vitro peptide stability in human serum (RP-HPLC). The settings on record: for half-life at 50 µg/mL / half-life: human.
Protocol: The initial time is recorded, and at known time intervals 50 µL of the reaction solution is removed and added to 100 µL of 6% aqueous trichloroacetic acid (TCA) for precipitation of serum proteins. […] The reaction supernatant is then analyzed using RP-HPLC (Agilent 1200 LC System) on a ZORBAX Eclipse XDB-C18, 4.6×150 mm, 5 µm column (Agilent). […] Fluorescence is detected at an excitation wavelength of 280 nm and emission wavelength of 340 nm. Kinetic analysis was carried out by least-squares analysis of the logarithm of the integration peak area versus time.
The mark [2] stands for this setting: Ca2+ mobilization, CMKLR1, decimal comma.

Like-named read-outs stand apart in the source and are kept apart here. Square brackets hold non-standard residues; d marks the D form. Ends that are not written are not given here. Peptide text beside a SMILES is read from it.

Usually EC50 stands for the midpoint of the concentration-response curve. As usually defined, the half-life is the time needed for the level to fall by half in the phase considered. A lower half-life goes with fast loss. Consider `C[C@H](NC(=O)[C@H](Cc1ccc(O)cc1)NC(=O)[C@H](CCC(N)=O)NC(=O)CNC(=O)[C@@H]1CCCN1C(=O)[C@H](CCC(=O)O)NC(=O)[C@@H](N)Cc1ccc(O)cc1)C(=O)N[C@@H](Cc1ccccc1)C(=O)N[C@H](CO)C(=O)O` [compound 94] (H-YEPGQYAF[dS]-OH; N-terminus assumed), for which, at human CMKLR1 (setting [2]), the max response is reported as 1,56 DF/F0 and the EC50 turned out to be 76.2 nM. The molecule also registered a half-life at 50 µg/mL in series [1] (human serum, 25% (v/v) in RPMI) of 0.783 h.

Consider YFPGQFAFG-OH [compound 29], for which, at human CMKLR1, the max response was 1,01 DF/F0. The molecule further gave a t1/2 in series [1] (metabolic stability in human serum) of 0.217 h.

The molecule `CC(C)C[C@H](NC(=O)[C@H](N)Cc1ccc(O)cc1)C(=O)N1CCC[C@H]1C(=O)NCC(=O)N[C@@H](CCC(N)=O)C(=O)N[C@@H](Cc1ccc(O)cc1)C(=O)N[C@@H](C)C(=O)N[C@@H](Cc1ccccc1)C(=O)N[C@@H](CO)C(=O)O` (H-[dY]LPGQYAFS-OH) had a half-life in series [1] (serum) of 1.28 ± 0.0833 h.

`CC(C)C[C@H](NC(=O)[C@H](C)NC(=O)[C@H](Cc1ccc(O)cc1)NC(=O)[C@@H](Cc1ccc(O)cc1)NC(=O)CNC(=O)[C@@H]1CCCN1C(=O)[C@H](CC(C)C)NC(=O)[C@@H](N)Cc1ccc(O)cc1)C(=O)N[C@H](Cc1ccccc1)C(=O)O` [compound 136] (H-YLPG[dY]YAL[dF]-OH; N-terminus assumed): at human CMKLR1 (setting [2]), the max response is recorded as 1,4 DF/F0 and the EC50 was 75 nM. Moreover, the half-life at 50 µg/mL in series [1] (human serum, 25% (v/v) in RPMI) was determined as 1.62 h.

As to `CC(C)C[C@H](NC(=O)[C@H](N)Cc1ccc(O)cc1)C(=O)N1CCC[C@H]1C(=O)N[C@H](CO)C(=O)N[C@@H](CCC(N)=O)C(=O)N[C@@H](Cc1ccc(O)cc1)C(=O)N[C@@H](C)C(=O)N[C@@H](Cc1ccccc1)C(=O)N[C@H](Cc1ccccc1)C(=O)O` [compound 120] (H-[dY]LP[dS]QYAF[dF]-OH; N-terminus assumed), the max response on human CMKLR1 (setting [2]) is 1,97 DF/F0. In series [1] (serum), this molecule gave a half-life at 50 µg/mL of 28.2 h.

As to `CC(C)C[C@H](NC(=O)[C@H](Cc1ccccc1)NC(=O)[C@H](CCC(N)=O)NC(=O)CNC(=O)[C@H]1CCCN1C(=O)[C@@H](CC(C)C)NC(=O)[C@@H](N)Cc1ccc(O)cc1)C(=O)N[C@@H](Cc1ccccc1)C(=O)N[C@@H](CO)C(=O)O` [compound 75] (H-Y[dL][dP]GQFLFS-OH; N-terminus assumed), on human CMKLR1 (setting [2]), the max response was 0,99 DF/F0 and the EC50 is 5580 nM. Besides, the half-life at 50 µg/mL in series [1] (human serum, 25% (v/v) in RPMI) was determined as 0.817 h.

On to FLPPQFAFF-OH [compound 73], for which, on human CMKLR1 (setting [2]), the max response was 0,77 DF/F0 and the EC50 is 3000 nM. The half-life at 50 µg/mL in series [1] (human serum, 25% (v/v) in RPMI) is 0.333 h.

Take `C[C@@H](NC(=O)[C@H](Cc1ccc(O)cc1)NC(=O)[C@H](CCC(N)=O)NC(=O)[C@H](N)Cc1ccccc1)C(=O)N[C@@H](CCC(N)=O)C(=O)N[C@@H](Cc1ccc(O)cc1)C(=O)N[C@H](Cc1c[nH]c2ccccc12)C(=O)N[C@@H](Cc1ccccc1)C(=O)N[C@H](CO)C(=O)O` [compound 146] (H-[dF]QY[dA]QY[dW]F[dS]-OH; N-terminus assumed): at human CMKLR1 (setting [2]), the max response is 1,49 DF/F0 and the EC50 came to 171 nM. Moreover, the half-life at 50 µg/mL in series [1] (human serum, 25% (v/v) in RPMI) amounted to 37.7 h.

Consider `CSCC[C@H](NC(=O)[C@H](N)Cc1ccc(O)cc1)C(=O)N1CCC[C@H]1C(=O)NCC(=O)N[C@@H](CCC(N)=O)C(=O)N[C@@H](Cc1ccc(O)cc1)C(=O)N[C@@H](C)C(=O)N[C@@H](Cc1ccccc1)C(=O)N[C@@H](CO)C(=O)O` [compound 85] (H-[dY]MPGQYAFS-OH; N-terminus assumed), for which, at human CMKLR1 (setting [2]), the max response was 1,78 DF/F0 and the EC50 turned out to be 11.7 nM. In series [1] (human serum, 25% (v/v) in RPMI), this molecule yielded a half-life at 50 µg/mL of 1.25 h.

With YFPGQYAFF-OH [compound 30], at human CMKLR1 (setting [2]), the max response was 0,98 DF/F0 and the concentration giving a half-maximal response (EC50) worked out at 1.89 nM. This molecule also returned a half-life at 50 µg/mL in series [1] (human serum, 25% (v/v) in RPMI) of 0.433 h.

Consider `CC(C)C[C@H](NC(=O)[C@@H](N)CCC(N)=O)C(=O)N1CCC[C@H]1C(=O)NCC(=O)N[C@@H](CCC(N)=O)C(=O)N[C@@H](Cc1ccccc1)C(=O)N[C@@H](C)C(=O)N[C@H](Cc1ccccc1)C(=O)N[C@@H](Cc1ccccc1)C(=O)O` [compound 71] (H-QLPGQFA[dF]F-OH; N-terminus assumed), for which, on human CMKLR1 (setting [2]), the max response was 0,66 DF/F0 and the EC50 came to 2460 nM. This molecule also came in with a half-life at 50 µg/mL in series [1] (human serum, 25% (v/v) in RPMI) of 0.517 h.

Consider `CC(C)C[C@H](NC(=O)CN)C(=O)N[C@@H](CCC(N)=O)C(=O)N[C@H](CCC(N)=O)C(=O)N[C@@H](Cc1ccccc1)C(=O)N[C@@H](Cc1ccc(O)cc1)C(=O)N[C@H](Cc1c[nH]c2ccccc12)C(=O)NCC(=O)N[C@H](Cc1ccccc1)C(=O)O` [compound 132] (H-GLQ[dQ]FY[dW]G[dF]-OH; N-terminus assumed), for which, on human CMKLR1 (setting [2]), the max response is 1,82 DF/F0 and the EC50 stood at 55.7 nM. Besides, the half-life at 50 µg/mL in series [1] (human serum, 25% (v/v) in RPMI) was 1.95 h.

Regarding `CC(C)C[C@H](NC(=O)[C@H](N)Cc1ccc(O)cc1)C(=O)N1CCC[C@@H]1C(=O)NCC(=O)N[C@@H](CCC(N)=O)C(=O)N[C@@H](Cc1ccc(O)cc1)C(=O)N[C@@H](C)C(=O)N[C@@H](Cc1ccccc1)C(=O)N[C@@H](CO)C(=O)O` [compound 104] (H-[dY]L[dP]GQYAFS-OH; N-terminus assumed), at human CMKLR1 (setting [2]), the max response is on record as 1,73 DF/F0 and the EC50 is 246 nM. Also, in series [1] (human serum, 25% (v/v) in RPMI), the half-life at 50 µg/mL worked out at 1.33 h.

Consider `C[C@H](NC(=O)[C@H](Cc1ccccc1)NC(=O)[C@H](C)NC(=O)[C@H](Cc1ccc(O)cc1)NC(=O)[C@H](C)NC(=O)[C@H](Cc1ccccc1)NC(=O)[C@@H](CO)NC(=O)[C@H](Cc1ccccc1)NC(=O)[C@@H](N)CCC(N)=O)C(=O)O` [compound 102] (H-QF[dS]FAYAFA-OH; N-terminus assumed), for which, on human CMKLR1 (setting [2]), the max response is listed as 1,78 DF/F0 and the EC50 was determined as 143 nM. Also, the half-life at 50 µg/mL in series [1] (human serum, 25% (v/v) in RPMI) worked out at 1.38 h.

For `CC(C)C[C@H](NC(=O)[C@H](N)Cc1ccc(O)cc1)C(=O)N1CCC[C@H]1C(=O)NCC(=O)N[C@@H](CCC(N)=O)C(=O)N[C@@H](Cc1ccc(O)cc1)C(=O)N[C@@H](C)C(=O)N[C@@H](Cc1ccccc1)C(=O)N[C@@H](Cc1ccccc1)C(=O)O` (H-[dY]LPGQYAFF-OH; N-terminus assumed), the half-life at 50 µg/mL in series [1] (human serum, 25% (v/v) in RPMI) worked out at 2.25 ± 0.65 h.

As for `CC(C)C[C@H](NC(=O)[C@@H](N)Cc1ccc(O)cc1)C(=O)N1CCC[C@H]1C(=O)NCC(=O)N[C@@H](CCC(N)=O)C(=O)N[C@@H](Cc1ccc(O)cc1)C(=O)N[C@@H](C)C(=O)N[C@@H](Cc1ccccc1)C(=O)N[C@H](Cc1ccccc1)C(=O)O` (H-YLPGQYAF[dF]-OH), the half-life in series [1] (serum) was 0.6 ± 0.0667 h.

The molecule `CC(C)C[C@H](NC(=O)[C@@H](N)Cc1ccc(O)cc1)C(=O)N1CCC[C@H]1C(=O)NCC(=O)N[C@@H](CCC(N)=O)C(=O)N[C@@H](Cc1ccc(O)cc1)C(=O)N[C@@H](C)C(=O)N[C@@H](Cc1ccccc1)C(=O)N[C@H](CO)C(=O)O` (H-YLPGQYAF[dS]-OH; N-terminus assumed) had a half-life at 50 µg/mL in series [1] (human serum, 25% (v/v) in RPMI) of 0.367 ± 0.0333 h.

`C[C@@H](NC(=O)[C@H](Cc1ccccc1)NC(=O)[C@H](Cc1ccccc1)NC(=O)[C@@H](CO)NC(=O)[C@@H]1CCCN1C(=O)[C@@H](Cc1ccc(O)cc1)NC(=O)[C@H](N)Cc1ccc(O)cc1)C(=O)N[C@@H](Cc1ccccc1)C(=O)N1CCC[C@H]1C(=O)O` [compound 154] (H-[dY][dY]P[dS]FF[dA]FP-OH; N-terminus assumed): in series [1] (human serum, 25% (v/v) in RPMI), the half-life at 50 µg/mL stood at 6.23 h.

In series [1] (human serum, 25% (v/v) in RPMI), YFPGQFAFG-OH yielded a half-life at 50 µg/mL of 0.217 ± 0.0167 h.

As to `C[C@H](NC(=O)[C@H](Cc1ccccc1)NC(=O)[C@H](CCC(N)=O)NC(=O)[C@H]1CCCN1C(=O)CNC(=O)[C@H](Cc1ccccc1)NC(=O)[C@@H](N)Cc1ccc(O)cc1)C(=O)N[C@@H](Cc1ccccc1)C(=O)N[C@@H](CO)C(N)=O` [compound 14] (H-YFG[dP]QFAFS-NH2; N-terminus assumed), on human CMKLR1 (setting [2]), the max response is listed as 1,34 DF/F0 and the concentration giving a half-maximal response (EC50) turned out to be 3440 nM.

On to `CC(C)C[C@H](NC(=O)[C@H]1CCCN1C(=O)CNC(=O)[C@H](Cc1ccccc1)NC(=O)[C@H](CC(C)C)NC(=O)[C@@H](N)Cc1ccccc1)C(=O)N[C@@H](C)C(=O)N[C@@H](CC(C)C)C(=O)N1CCC[C@@H]1C(=O)O` [compound 116] (H-FLFG[dP]LAL[dP]-OH; N-terminus assumed), for which, on human CMKLR1 (setting [2]), the max response is 0,9 DF/F0 and the EC50 came to 4140 nM.

In the case of WFPGQYAYS-NH2 [compound 23], at human CMKLR1 (setting [2]), the max response is recorded as 0,44 DF/F0 and the concentration for a half-maximal effect (EC50) stood at 20700 nM.

YFPGHFAFS-NH2: the “stability: t1/2 ±SD” value in series [1] (peptide half life in human serum (25% v/v in RPMI, 37°C), HPLC assay, mean of three independent experiments ± SD) was found to be 0.283 ± 0.067 h.
